Data reported in ChEMBL document CHEMBL1143396, “Additivity in the analysis and design of HIV protease inhibitors” (J Med Chem, 2009).

Target: Human immunodeficiency virus type 1 protease (Human immunodeficiency virus 1, UniProt Q72874, Q7K)
Test: Inhibition of HIV1 protease Q7K mutant by FRET method

Row | Compound | Ki (read-out: Ki) [nM] | Ki (read-out: pKi (converted)) [nM]
1 | CC(=O)/C=C/C(=O)N[C@@H](Cc1ccccc1)[C@H](O)CN(Cc1cccs1)S(=O)(=O)c1cc(F)c(F)cc1F | 610 | 617
2 | CC[C@H](C)CN(C[C@@H](O)[C@H](Cc1ccccc1)NC(=O)[C@@H]1CN(c2cccc(C(C)=O)c2)C(=O)O1)S(=O)(=O)c1ccc(OC)cc1 | 0.232 | 0.234
3 | CC[C@H](O)CC(=O)N[C@@H](Cc1ccccc1)[C@H](O)CN(CC(C)C)S(=O)(=O)c1ccc2ncsc2c1 | 0.134 | 0.135
4 | CCCCCN(C[C@@H](O)[C@H](Cc1ccccc1)NC(=O)[C@@H](O)C(C)C)S(=O)(=O)c1ccc2ncsc2c1 | 0.82 | 0.813
5 | COc1cccc(S(=O)(=O)N(C[C@H]2CCCO2)C[C@@H](O)[C@H](Cc2ccccc2)NC(=O)[C@@H]2CN(c3cccc(F)c3)C(=O)O2)c1 | 150 | 151
6 | CC(C)CN(C[C@@H](O)[C@H](Cc1ccccc1)NC(=O)C1(C(N)=O)CC1)S(=O)(=O)c1ccc2ncsc2c1 | 0.115 | 0.115
7 | CC[C@@H](C)CN(C[C@@H](O)[C@H](Cc1ccccc1)NC(=O)C[C@@H](O)CC)S(=O)(=O)c1ccc(OC)cc1 | 0.34 | 0.339
8 | CC[C@@H](C)CN(C[C@@H](O)[C@H](Cc1ccccc1)NC(=O)C[C@@H](O)CC)S(=O)(=O)c1ccc2ncsc2c1 | 0.067 | 0.0676
9 | COc1cccc(S(=O)(=O)N(Cc2cccs2)C[C@@H](O)[C@H](Cc2ccccc2)NC(=O)[C@H]2CCCC[C@@H]2C)c1 | 582 | 589
10 | COc1cccc(S(=O)(=O)N(Cc2cccs2)C[C@@H](O)[C@H](Cc2ccccc2)Nc2cc(F)c(F)c(O)c2F)c1 | 515 | 513
11 | Cc1cccc(OS(=O)(=O)N(C[C@@H](O)[C@H](Cc2ccccc2)NC(=O)C[C@H]2C=CCC2)C[C@@H](C)O)c1 | > 10000 | –
12 | CCCCCN(C[C@@H](O)[C@H](Cc1ccccc1)NC(=O)C[C@@H](O)CC)S(=O)(=O)c1ccc(OC)cc1 | 0.86 | 0.851
13 | CC[C@@H](C)CN(C[C@@H](O)[C@H](Cc1ccccc1)NC(=O)C1(C(N)=O)CC1)S(=O)(=O)c1ccc2ncsc2c1 | 0.132 | 0.132
14 | O=C(Cc1cccs1)N[C@@H](Cc1ccccc1)[C@H](O)CN(Cc1cccs1)S(=O)(=O)c1cc(F)c(F)cc1F | 2360 | 2340
15 | COc1ccc(S(=O)(=O)N(CC(C)C)C[C@@H](O)[C@H](Cc2ccccc2)NC(=O)[C@H](C)NC(C)=O)cc1 | 0.117 | 0.117
16 | Cc1cccc(C(=O)N[C@@H](Cc2ccccc2)[C@H](O)CN(CC2CC2)S(=O)(=O)c2ccco2)n1 | > 10000 | –
17 | COc1ccc(S(=O)(=O)N(CC(C)C)C[C@@H](O)[C@H](Cc2ccccc2)NC(=O)c2cccc(O)c2)cc1 | 0.14 | 0.141
18 | CC(=O)N[C@H](C(=O)N[C@@H](Cc1ccccc1)[C@H](O)CN(CC(C)C)S(=O)(=O)c1ccc2ncsc2c1)C(C)C | 0.099 | 0.1
19 | CC[C@H](C)CN(C[C@@H](O)[C@H](Cc1ccccc1)NC(=O)c1ccc(O)c(O)c1)S(=O)(=O)c1ccc(OC)cc1 | 0.38 | 0.38
20 | CC(C)CN(C[C@@H](O)[C@H](Cc1ccccc1)NC(=O)[C@@H](O)C(C)C)S(=O)(=O)c1ccc2ncsc2c1 | 0.29 | 0.288
21 | CCCCCN(C[C@@H](O)[C@H](Cc1ccccc1)NC(=O)CCC(=O)CC)S(=O)(=O)c1ccc(OC)cc1 | 4.17 | 4.17

Row | Compound | Ki (read-out: Ki) [nM] | Ki (read-out: pKi (converted)) [nM]
22 | CCCCCN(C[C@@H](O)[C@H](Cc1ccccc1)NC(=O)[C@@H](O)C(C)C)S(=O)(=O)c1ccc(OC)cc1 | 2.48 | 2.45
23 | CCCCCN(C[C@@H](O)[C@H](Cc1ccccc1)NC(=O)C1(C(N)=O)CC1)S(=O)(=O)c1ccc2ncsc2c1 | 0.21 | 0.209
24 | CNC(=O)CCC(=O)N[C@@H](Cc1ccccc1)[C@H](O)CN(C[C@H](C)O)S(=O)(=O)c1ccco1 | 543 | 537
25 | CC[C@H](C)CN(C[C@@H](O)[C@H](Cc1ccccc1)NC(=O)[C@@H]1CN(c2cccc(C(C)=O)c2)C(=O)O1)S(=O)(=O)c1ccc2ncsc2c1 | 0.019 | 0.0191
26 | CC[C@H](C)CN(C[C@@H](O)[C@H](Cc1ccccc1)NC(=O)c1cccc(F)c1C)S(=O)(=O)c1ccc2ncsc2c1 | 0.033 | 0.0331
27 | CCC(=O)CCC(=O)N[C@@H](Cc1ccccc1)[C@H](O)CN(C[C@H](C)CC)S(=O)(=O)c1ccc2ncsc2c1 | 0.063 | 0.0631
28 | CNC(=O)CCC(=O)N[C@@H](Cc1ccccc1)[C@H](O)CN(C[C@@H](C)O)S(=O)(=O)c1cccc(OC)c1 | 1170 | 1170
29 | COc1cccc(S(=O)(=O)N(C[C@@H](O)[C@H](Cc2ccccc2)NC(=O)c2cccc(C)n2)C[C@@H](C)O)c1 | 12200 | 12300
30 | O=C(C[C@H]1C=CCC1)N[C@@H](Cc1ccccc1)[C@H](O)CN(CC1CC1)S(=O)(=O)c1ccco1 | > 10000 | –
31 | CCCCCN(C[C@@H](O)[C@H](Cc1ccccc1)NC(=O)c1cccc(O)c1)S(=O)(=O)c1ccc(OC)cc1 | 1.45 | 1.45
32 | CC(=O)/C=C/C(=O)N[C@@H](Cc1ccccc1)[C@H](O)CN(Cc1cccs1)S(=O)(=O)c1cnoc1C | 26300 | 26300
33 | Cc1cccc(C(=O)N[C@@H](Cc2ccccc2)[C@H](O)CN(C[C@H](C)O)S(=O)(=O)c2ccco2)n1 | > 10000 | –
34 | COc1ccc(S(=O)(=O)N(CC(C)C)C[C@@H](O)[C@H](Cc2ccccc2)NC(=O)C2(C(N)=O)CC2)cc1 | 0.173 | 0.174
35 | COc1ccc(S(=O)(=O)N(CC(C)C)C[C@@H](O)[C@H](Cc2ccccc2)NC(=O)/C=C/C(C)=O)cc1 | 0.17 | 0.17
36 | COc1cccc(S(=O)(=O)N(Cc2cccs2)C[C@@H](O)[C@H](Cc2ccccc2)NC(=O)c2cc(O)c(O)c(O)c2)c1 | 1150 | 1150
37 | CC[C@@H](C)CN(C[C@@H](O)[C@H](Cc1ccccc1)NC(=O)c1cccc(O)c1)S(=O)(=O)c1ccc(OC)cc1 | 0.117 | 0.117
38 | C[C@H](O)CN(C[C@@H](O)[C@H](Cc1ccccc1)NC(=O)C[C@H]1C=CCC1)S(=O)(=O)c1ccco1 | 259 | 257
39 | C/C(=C\C(=O)N(C)[C@@H](Cc1ccccc1)[C@H](O)CN(Cc1cccs1)S(=O)(=O)c1cc(F)c(F)cc1F)C(F)(F)F | 52.6 | 52.5
40 | CCCCCN(C[C@@H](O)[C@H](Cc1ccccc1)NC(=O)[C@@H](NC(C)=O)C(C)C)S(=O)(=O)c1ccc(OC)cc1 | 0.038 | 0.038
41 | CC[C@@H](C)CN(C[C@@H](O)[C@H](Cc1ccccc1)NC(=O)[C@@H](NC(C)=O)C(C)C)S(=O)(=O)c1ccc2ncsc2c1 | 0.057 | 0.0575
42 | COc1ccc(S(=O)(=O)N(CC(C)C)C[C@@H](O)[C@H](Cc2ccccc2)Nc2cccc(F)c2C)cc1 | 0.093 | 0.0933

Row | Compound | Ki (read-out: Ki) [nM] | Ki (read-out: pKi (converted)) [nM]
43 | CNC(=O)CCC(=O)N[C@@H](Cc1ccccc1)[C@H](O)CN(C[C@H](C)O)S(=O)(=O)c1cccc(OC)c1 | 764 | 759
44 | COc1ccc(S(=O)(=O)N(CC(C)C)C[C@@H](O)[C@H](Cc2ccccc2)NC(=O)[C@@H](NC(C)=O)C(C)C)cc1 | 0.084 | 0.0832
45 | COc1ccc(S(=O)(=O)N(CC(C)C)C[C@@H](O)[C@H](Cc2ccccc2)NC(=O)[C@@H](O)C(C)C)cc1 | 1.88 | 1.86
46 | CCCCCN(C[C@@H](O)[C@H](Cc1ccccc1)NC(=O)CCC(=O)CC)S(=O)(=O)c1ccc2ncsc2c1 | 1.62 | 1.62
47 | CC[C@@H](C)CN(C[C@@H](O)[C@H](Cc1ccccc1)NC(=O)[C@@H](O)C(C)C)S(=O)(=O)c1ccc(OC)cc1 | 0.617 | 0.617
48 | CCCCCN(C[C@@H](O)[C@H](Cc1ccccc1)NC(=O)c1cccc(O)c1)S(=O)(=O)c1ccc2ncsc2c1 | 0.309 | 0.309
49 | CCCCCN(C[C@@H](O)[C@H](Cc1ccccc1)NC(=O)C1(C(N)=O)CC1)S(=O)(=O)c1ccc(OC)cc1 | 0.79 | 0.794
50 | CC[C@H](O)CC(=O)N[C@@H](Cc1ccccc1)[C@H](O)CN(CC(C)C)S(=O)(=O)c1ccc(OC)cc1 | 0.37 | 0.372
51 | CC[C@@H](C)CN(C[C@@H](O)[C@H](Cc1ccccc1)NC(=O)C1(C(N)=O)CC1)S(=O)(=O)c1ccc(OC)cc1 | 0.21 | –
52 | CC[C@H](C)CN(C[C@@H](O)[C@H](Cc1ccccc1)NC(=O)[C@H](C)NC(C)=O)S(=O)(=O)c1ccc(OC)cc1 | 0.046 | 0.0457
53 | CCC(=O)CCC(=O)N[C@@H](Cc1ccccc1)[C@H](O)CN(CC(C)C)S(=O)(=O)c1ccc(OC)cc1 | 0.24 | 0.24
54 | Cc1oncc1S(=O)(=O)N(Cc1cccs1)C[C@@H](O)[C@H](Cc1ccccc1)NC(=O)/C=C/C(C)C(F)(F)F (stereo partly specified) | 13200 | 13200
55 | COc1cccc(S(=O)(=O)N(C[C@H]2CCCO2)C[C@@H](O)[C@H](Cc2ccccc2)NC(=O)[C@@H]2CN(c3ccccc3)C(=O)O2)c1 | 42 | 41.7
56 | CC[C@@H](C)CN(C[C@@H](O)[C@H](Cc1ccccc1)NC(=O)[C@@H](NC(C)=O)C(C)C)S(=O)(=O)c1ccc(OC)cc1 | 0.033 | 0.0331
57 | CCCCCN(C[C@@H](O)[C@H](Cc1ccccc1)NC(=O)C[C@@H](O)CC)S(=O)(=O)c1ccc2ncsc2c1 | 0.7 | 0.708
58 | CCC(=O)CCC(=O)N[C@@H](Cc1ccccc1)[C@H](O)CN(CC(C)C)S(=O)(=O)c1ccc2ncsc2c1 | 0.12 | 0.12
59 | COc1ccc(S(=O)(=O)N(CC(C)C)C[C@@H](O)[C@H](Cc2ccccc2)NC(=O)/C=C(\C)C(F)(F)F)cc1 | 0.39 | 0.389
60 | COc1cccc(S(=O)(=O)N(CC2CC2)C[C@@H](O)[C@H](Cc2ccccc2)NC(=O)c2cccc(C)n2)c1 | 14600 | 14500
61 | O=C(N[C@@H](Cc1ccccc1)[C@H](O)CN(Cc1cccs1)S(=O)(=O)c1cc(F)c(F)cc1F)c1ccnnc1 | 1060 | 1070
62 | COc1cccc(S(=O)(=O)N(C[C@H](C)O)C[C@@H](O)[C@H](Cc2ccccc2)NC(=O)c2cccc(C)n2)c1 | 4760 | 4790
63 | Cc1cccc(OS(=O)(=O)N(CC2CC2)C[C@@H](O)[C@H](Cc2ccccc2)NC(=O)C[C@H]2C=CCC2)c1 | 2020 | 2040
